Reference: patent publication US5714496A, “Quinuclidine derivatives as squalene synthase inhibitors” (Zeneca Limited, priority 1992, dated 1998)

Key:
[1] = test system: squalene synthase (rat liver microsomal protein); experiment: Inhibition of squalene synthase (squalene formation from tritiated farnesyl pyrophosphate); format: biochemical; details: at 2.5 μM; rat liver microsomes, 20 μM [3H]-farnesyl pyrophosphate, 15 min, 37° C.
Description: (a) Inhibition of Squalene synthase
In this test, the ability of a compound to prevent the formation of squalene from a radioactive substrate (tritiated farnesyl pyrophosphate) is assessed.
The test compound is incubated at a concentration of 25 micromolar in 200 μl of a buffered solution containing potassium phosphate (50 mM), MgCl2 (4.95 mM), KF (9.9 mM), NADPH (0.9 mM) and rat liver microsomal protein (20 μg). Rat liver microsomes are prepared by the method described in published European Patent Application No. 324,421 and stored in liquid nitrogen prior to assay. Assay vials are kept at 37° C. throughout the incubation.
The reaction is started with the addition of the substrate (1-[^3 H]-farnesyl pyrophosphate), final concentration 20 μM, and stopped after 15 minutes reaction time with the addition of 50 μl of 4% KOH. The reaction products are separated from unreacted substrate after application to a C-18 octadecyl 1 ccBond column (Analytichem Int product No. 617101). An aqueous fraction is eluted with 250 μl of 0.1M KOH. Squalene is then eluted with 1.0 ml 10% ethylacetate in hexane and radioactivity determined. The difference in radioactivity in the presence and absence of the test compound is used to determine the level of inhibition. […] The IC50 can then be determined from a plot of percentage inhibition against concentration of test compound.

[2] = test system: de novo hepatic cholesterol synthesis from 14C-acetate; experiment: Acute rat cholesterol synthesis assay; format: in vivo; details: plasma cholesterol specific radioactivity after ip [2-14C]-acetate given 1 hour after the compound
Description: (b) Acute rat cholesterol synthesis assay.
This is an acute in vivo test in the rat to measure de novo hepatic cholesterol synthesis from exogenously administered ^14 C-acetate.
Female rats (35-55 g) are housed in reverse lighting conditions (red light from 0200 h-1400 h) for a period of about 2 weeks prior to test. Animals are allowed free access to chow and drinking water throughout this period. At test, animals should weigh 125-150 g.
Test compounds may be administered by oral gavage, dissolved or suspended in 0.5% polysorbate, or by ip or iv dosing. Control animals receive vehicle alone. After 1 hour the rats are injected ip with 25 μCi [2-^14 C]-acetate (NEN DUPONT, specific activity, 45-60 mCi/mmol NEC-085H, or AMERSHAM specific activity, 50-60 mCi/mmol CFA 14) in a volume of 0.25 ml saline (100 μCi/ml). After a further hour, rats are terminally anaesthetised with halothane and a blood sample obtained from the abdominal vena cava.
1 ml of plasma is lyophilised and then saponified in 2 ml ethanolic KOH (1 part 33% KOH, 9 parts ethanol) at 75° C. for 2 hours. After addition of an equal quantity of water, non-saponifiable lipids are extracted with two 5 ml volumes of hexane. The hexane extracts are evaporated to dryness and the residues dissolved in ethanol to determine cholesterol specific radioactivity. ED50 values can be determined in the standard way.

With OC1(C#Cc2ccc(-c3ccccn3)cc2)CN2CCC1CC2 (centres unmarked) [Example 2, 3-[2-(4-[2-pyridyl]phenyl)ethynyl]-3-hydroxyquinuclidine] the “inhibition of squalene synthase” value [1] was “about 98%” and the ED50 [2] was 8 mg/kg.
